Assay results taken from patent US8461183B2, “PPAR agonist compounds, preparation and uses” (Genfit, priority 2008, dated 2013).

What was measured:
Assay type in all cases: cell-based
[1] = test system: PPARδ target genes (PDK4, CPT1b, UCP2) in murine myocytes; test: Expression of PPARδ target genes in murine myocytes (differentiated C2C12 cells); settings: 24 hours, Cpd 7 at 0.1, 1, 10 μM, Cpd 24 at 0.2, 2, 20 μM, normalized to 36B4
Procedure: The PPARδ agonist properties previously measured in vitro were evaluated by measuring, in murine myocytes, the expression of genes involved in lipid and carbohydrate metabolism and energy expenditure (PDK4, CPT1b, UCP2). Regulation of expression of these genes, in this cell type, is a direct consequence of the activation of PPARδ by the compounds according to the invention. The greater the increase in expression of the genes, the more the compound according to the invention is a stimulator of metabolism in muscle cells (Dressel U et al., 2003).
The C2C12 murine cells (from ECACC) are cultivated in DMEM medium (Gibco; 41965-039) supplemented with 1% L-glutamine (Gibco; 25030), 1% penicillin/streptomycin (VWR; BWSTL0022/100) and 10% decomplemented fetal calf serum (FCS. Gibco; 10270-106).
The cells are seeded in 24-well plates at a density of 50×10^3 cells/well. At confluence, the medium is replaced with a differentiation medium (base culture medium supplemented with 2% of horse serum (Gibco; 26050-088)) then culture is continued at 37° C. and 5% CO2 for 7 days in order to permit differentiation of the myoblasts into myocytes.
After 6 days of differentiation, the cells are put in a deprivation medium (base culture medium without serum) for 6 hours. The cells are then treated with the compounds according to the invention in the deprivation medium. The compounds according to the invention were tested at doses of 0.1, 1, 10 μM and 0.2, 2 and 20 μM respectively. The compounds according to the invention were dissolved in dimethylsulfoxide (DMSO, Sigma; D5879). The cells are treated for 24 hours at 37° C., 5% CO2. The effects for the compounds tested were compared with the effect of DMSO alone at a concentration of 0.1%.
These procedures were performed on the cells essentially as described in Example 10 (point c) of the Protocols.
The following primer pairs specific to the genes investigated were used: […]

[2] = biological target: T1, hPPARδ (Homo sapiens, UniProt Q03181); test: Gal4-hPPARδ chimera transactivation (luciferase) in COS-7 cells; settings: for EC50: luciferase, read-out: PPARδ EC50; for Emax: read-out: PPARδ TOP % (maximum activation)
T1 construct: corresponding to the DEF domains (structural elements of the promoter of the PPARs: D=hinge, EF=ligand fixation domain and AF2 fixation site); expressed in transfected cells; host or cells: COS-7 (monkey kidney fibroblasts)
T1 sequence (Q03181 211-439 limits assumed): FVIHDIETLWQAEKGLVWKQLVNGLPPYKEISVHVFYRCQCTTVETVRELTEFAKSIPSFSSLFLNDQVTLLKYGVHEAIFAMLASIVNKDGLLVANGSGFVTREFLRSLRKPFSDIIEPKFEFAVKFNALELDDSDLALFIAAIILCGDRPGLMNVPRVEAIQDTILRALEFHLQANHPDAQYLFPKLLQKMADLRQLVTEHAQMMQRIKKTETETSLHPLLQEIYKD
Procedure: (§1) Activation of PPARs is evaluated in vitro on a line of monkey kidney fibroblasts (COS-7) by measuring the transcriptional activity of chimeras consisting of the DNA binding domain of Gal4 transcription factor of yeast and of the ligand binding domain of the various PPARs of human origin (hPPAR).
(§2) The COS-7 cells are from ATCC and are cultivated in DMEM medium supplemented with 10% (vol/vol) of fetal calf serum, 1% of penicillin/streptomycin (Biochrom, AG), 1% of amino acids (Gibco) and 1% of sodium pyruvate (Gibco). The cells are incubated at 37° C. in a humid atmosphere containing 5% CO2.
(§3) The plasmids Gal4(RE)_TkpGL3, pGal4-hPPARα, pGal4-hPPARγ, pGal4-hPPARδ and pGal4-φ are described in the literature (Raspe E et al., 1999). The constructs pGal4-hPPARα, pGal4-hPPARγ and pGal4-hPPARδ were obtained by cloning, into the pGal4-φ vector, DNA fragments amplified by PCR corresponding to the DEF domains (structural elements of the promoter of the PPARs: D=hinge, EF=ligand fixation domain and AF2 fixation site) of the human nuclear receptors PPAα, PPARγ and PPARδ.
(§4) The adherent COS-7 cells are transfected with 40 μg of DNA per 225 cm^2 flask, with a pGal4-hPPAR/Gal4(RE)_TkpGL3 ratio of 1/10, in the presence of 10% of fetal calf serum. The cells are then detached and seeded in the absence of serum in 384-well plates (2×10^4 cells/well) then incubated for 4 hours at 37° C. The compounds are then diluted in a 96-well plate and then transferred to the 384-well plate. Activation with the test compounds is effected for a further 24 hours at 37° C. in the presence of 1% of synthetic serum Ultroser™ (Biosepra). These last 2 stages are automated by means of a Genesis Freedom 200™ station (Tecan). At the end of the experiment, the cells are lysed and the luciferase activity is determined using the Steady-Lite™ HTS (Perkin Elmer) according to the supplier's recommendations.
(§5) The test data are summarized in Table 8-1 below, which presents, for each compound, the values of maximum activation (TOP %) and the EC50 values measured for each isoform of PPAR.

[3] = biological target: T2, hPPARα (Homo sapiens, UniProt Q07869); test: Gal4-hPPARα chimera transactivation (luciferase) in COS-7 cells; settings: COS-7 cells, Gal4-hPPARα, 24 hours; for EC50: luciferase, read-out: PPARα EC50; for Emax: read-out: PPARα TOP % (maximum activation)
T2 construct: corresponding to the DEF domains (structural elements of the promoter of the PPARs: D=hinge, EF=ligand fixation domain and AF2 fixation site); expressed in transfected cells; host or cells: COS-7 (monkey kidney fibroblasts)
T2 sequence (Q07869 239-466 limits assumed): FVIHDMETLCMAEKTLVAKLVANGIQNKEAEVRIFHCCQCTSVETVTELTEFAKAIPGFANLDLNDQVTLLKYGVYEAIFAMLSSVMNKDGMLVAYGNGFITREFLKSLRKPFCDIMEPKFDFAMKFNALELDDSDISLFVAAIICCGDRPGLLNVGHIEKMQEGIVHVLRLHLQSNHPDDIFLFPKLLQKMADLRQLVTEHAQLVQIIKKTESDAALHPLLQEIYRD
Procedure: as §1, §2, §3, §4
The test data are summarized in Table 8-1 below, which presents, for each compound, the values of maximum activation (TOP %) and the EC50 values measured for each isoform of PPAR. The values of maximum activation are expressed in percentages relative to the maximum activations obtained with reference agonists: fenofibric acid for PPARα, rosiglitazone for PPARγ and 2-methyl-4-((4-methyl-2-(4-trifluoromethylphenyl)-1,3-thiazol-5-yl)-methylsulfanyl)phenoxyacetic acid (also called GW501516) for PPARδ.

[4] = biological target: T3, hPPARγ (Homo sapiens, UniProt P37231); test: Gal4-hPPARγ chimera transactivation (luciferase) in COS-7 cells; settings: 24 hours; for EC50: luciferase, read-out: PPARγ EC50; for Emax: read-out: PPARγ TOP % (maximum activation)
T3 construct: corresponding to the DEF domains (structural elements of the promoter of the PPARs: D=hinge, EF=ligand fixation domain and AF2 fixation site); expressed in transfected cells; host or cells: COS-7 (monkey kidney fibroblasts)
T3 sequence (P37231 238-503 limits assumed): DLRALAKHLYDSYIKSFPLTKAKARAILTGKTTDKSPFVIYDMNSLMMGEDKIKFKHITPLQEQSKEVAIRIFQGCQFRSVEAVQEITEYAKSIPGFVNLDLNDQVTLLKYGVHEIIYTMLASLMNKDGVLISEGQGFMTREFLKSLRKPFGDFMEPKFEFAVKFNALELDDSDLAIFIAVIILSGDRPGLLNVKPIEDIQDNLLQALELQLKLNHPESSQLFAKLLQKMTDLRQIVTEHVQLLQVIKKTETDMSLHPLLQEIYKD
Procedure: as §1, §2, §3, §4, §5

[5] = COS-7 cells, Gal4-hPPARδ, 24 hours
[6] = relative to maximum activation obtained with GW501516, COS-7 cells, Gal4-hPPARδ, 24 hours
[7] = relative to maximum activation obtained with fenofibric acid
[8] = relative to maximum activation obtained with rosiglitazone

EC50 [2, 5] [µM] | selectivity among hPPAR isoforms (hPPARδ) ([2]; Gal4-hPPAR chimeras, COS-7) | Emax [2, 6] [%] | EC50 [3] [µM] | Emax [3, 7] [%] | EC50 [4] [µM] | Emax [4, 8] [%] | PPARδ TOP % (maximum activation) [2, 6] [%] | PPARα TOP % (maximum activation) [3, 7] [%] | PPARγ TOP % (maximum activation) [4, 8] [%] | Compound | expression of CPT1b [1] | expression of PDK4 [1] | expression of UCP2 [1]
0.55 | selective with respect to hPPARδ | 96.5 | 39.6 | 28.9 | 46.8 | 20.6 | – | – | – | CC(C)(C)Oc1nc(-c2ccccc2)ccc1COc1ccc(OCC(=O)O)cc1 [Cpd 7] | significant effects of stimulating expression | significant effects of stimulating expression | significant effects of stimulating expression
0.754 | – | 96.7 | 6.06 | 53.2 | 10.5 | 25.6 | – | – | – | CC(Oc1ccc(NCc2ccc(-c3ccccc3)nc2OC(C)(C)C)cc1)C(=O)O (stereo not drawn) [Cpd 10, 2-(4-(((2-tert-butyloxy-6-phenylpyridin-3-yl)methyl)amino)phenoxy)propanoic acid] | – | – | –
2.38 | – | 80.6 | 0.929 | 55.5 | 2.64 | 72.2 | – | – | – | COc1cc(CCC(=O)O)ccc1NCc1ccc(-c2ccccc2)nc1OC [Cpd 44, 3-(3-methoxy-4-(((2-methoxy-6-phenylpyridin-3-yl)methyl)amino)-phenyl)-propanoic acid] | – | – | –
10.3 | – | 9.86 | 5.14 | 48.6 | 1.01 | 78 | – | – | – | CC#CC(CC(=O)O)c1ccc(OCc2ccc(-c3ccccc3)nc2OC)cc1 (stereo not drawn) [Cpd 53, 3-(4-((2-methoxy-6-phenylpyridin-3-yl)methoxy)phenyl)hex-4-ynoic acid] | – | – | –
3.97 | – | 97.1 | 10.7 | 35.3 | 14.2 | 26.1 | – | – | – | O=C(O)COc1ccc(OCc2ccc(-c3ccccc3)nc2OC2CCCCC2)cc1 [Cpd 18, 2-(4-((2-cyclohexyloxy-6-phenylpyridin-3-yl)methoxy)phenoxy)ethanoic acid] | – | – | –
3.2 | – | 92.1 | 7.97 | 34.5 | 4.85 | 42.2 | – | – | – | CC(C)Oc1nc(-c2ccccc2)ccc1CNc1ccc(CCC(=O)O)cc1 [Cpd 54, 3-(4-(((2-isopropyloxy-6-phenylpyridin-3-yl)methyl)amino)phenyl)propanoic acid] | – | – | –
1.15 | – | 102 | – | 75.9 | 1.05 | 88.9 | – | – | – | COc1nc(-c2ccc(C(F)(F)F)cc2)ccc1CNc1ccc(SC(C)(C)C(=O)O)cc1 [Cpd 22, 2-(4-(((2-methoxy-6-(4-(trifluoromethyl)phenyl)pyridin-3-yl)methyl)amino)-phenylthio)-2-methylpropanoic acid] | – | – | –
41.1 | – | 72.9 | 3.64 | 99.8 | 10.6 | 98.7 | – | – | – | COc1nc(-c2ccccc2)ccc1CNc1ccc(SC(F)(F)C(=O)O)cc1 [Cpd 27, 2-(4-(((2-methoxy-6-phenylpyridin-3-yl)methyl)amino)phenylthio)-2,2-difluoroethanoic acid] | – | – | –
0.408 | – | 123 | 3.62 | 51.1 | 4.04 | 73.2 | – | – | – | COc1ncc(-c2ccc(Cl)cc2)cc1CNc1ccc(CCC(=O)O)cc1 [Cpd 49, 3-(4-(((5-(4-chlorophenyl)-2-methoxypyridin-3-yl)methyl)amino)phenyl)-propanoic acid] | – | – | –
16.3 | – | – | 2.49 | – | 3.36 | – | 86.72 | 49.52 | 62.35 | 3-(4-(((2-methoxy-6-furylpyridin-3-yl)methyl)amino)phenyl)propanoic acid [Cpd 31] | – | – | –
0.992 | – | 99.6 | 0.009 | 66.8 | 0.583 | 75.6 | – | – | – | CCCCCCOc1nc(-c2ccccc2)ccc1COc1ccc(OC(C)(C)C(=O)O)cc1 [Cpd 17, 2-(4-((2-hexyloxy-6-phenylpyridin-3-yl)methoxy)phenoxy)-2-methyl-propanoic acid] | – | – | –
31.1 | – | 138 | 20.9 | 67 | 44.1 | 208 | – | – | – | COc1ncc(-c2ccccc2)cc1CNc1ccc(SCC(=O)O)cc1 [Cpd 26, 2-(4-(((2-methoxy-5-phenylpyridin-3-yl)methyl)amino)phenylthio)ethanoic acid] | – | – | –
